What all share (assay type): cell-based
For one assay, the system named is Enterococcus faecium 800. Nature of the assay: MIC by broth microdilution, EFcm 800. The protocol: (§1) Antibacterial activity in vitro is investigated by broth microdilution method in Meuller-Hinton broth as recommended by NCCLS. All strains tested are clinical isolates either sensitive or resistant to natural glycopeptides. MIC values were determined using the CLSI-recommended broth microdilution procedure (Clinical and Laboratory Standards Institute, Methods for Dilution Antimicrobial Susceptibility Tests for Bacteria That Grow Aerobically; Approved Standard-Seventh Edition.). Automated liquid handlers (Multidrop 384, Labsystems, Helsinki, Finland; Biomek 2000 and Multimek 96, Beckman Coulter, Fullerton Calif.) were used to conduct serial dilutions and liquid transfers. The MIC value for vancomycin is given for comparison. The abbreviations for organisms tested are as follow: SA 100—Staphylococcus aureus 100 (ATCC 29213); SA 757—Staphylococcus aureus 757 (MRSA); SA 2012—Staphylococcus aureus 2012 (VISA); SE 835—Staphylococcus epidermidis 835; SE 831—Staphylococcus epidermidis 831 (MRSE); EFc 101—Enterococcus faecalis 101 (ATCC 29212); EFc 848—Enterococcus faecalis 848 (VRE, Van A); EFcm 800—Enterococcus faecium 800; EFcm 752—Enterococcus faecium 752 (VRE, Van A); SPNE 1195—Streptococcus pneumoniae 1195 (ATCC 49619); SPY 712—Streptococcus pyogenes 712.
(In general: Broth dilution looks for growth in wells or tubes with falling amounts of substance.)

In assay [1] the test system is Staphylococcus aureus 757 (MRSA). Nature of the assay: MIC by broth microdilution, SA 757. The following applies: read-out: MIC SA 757. The procedure: as §1
For assay [2], the system named is Staphylococcus epidermidis 835. Nature of the assay: MIC by broth microdilution, SE 835. The procedure: as §1
Assay [3] concerns Streptococcus pyogenes 712. In words: MIC by broth microdilution, SPY 712. The protocol:
as §1

For assay [4], the system named is Staphylococcus aureus 2012 (VISA). Nature of the assay: MIC by broth microdilution, SA 2012. The note with it: class symbols. The protocol: as §1
Assay [5] concerns Enterococcus faecalis 848 (VRE, Van A). Nature of the assay: MIC by broth microdilution, EFc 848. The following applies: class symbols. The protocol:
as §1

In assay [6] the test system is Staphylococcus epidermidis 831 (MRSE). In words: MIC by broth microdilution, SE 831. The following applies: read-out: MIC SE 831. The protocol:
as §1

Assay [7] deals with Enterococcus faecalis 101 (ATCC 29212). Nature of the assay: MIC by broth microdilution, EFc 101. The following applies: class symbols. The protocol: as §1
The test system of assay [8] is Staphylococcus aureus 100 (ATCC 29213). In words: MIC by broth microdilution, SA 100. The protocol: as §1
Assay [9] relates to Enterococcus faecium 752 (VRE, Van A). In words: MIC by broth microdilution, EFcm 752. The following applies: class symbols. The protocol:
as §1

For assay [10], the system named is Streptococcus pneumoniae 1195 (ATCC 49619). Nature of the assay: MIC by broth microdilution, SPNE 1195. The protocol: as §1
Setting [11] is: Enterococcus faecium, 800, read-out: MIC E FCM 800.
The mark [12] stands for this setting: Staphylococcus epidermidis, 835, read-out: MIC SE 835.
Setting [13] is: Streptococcus pyogenes, 712, read-out: MIC S PYO 712.
The mark [14] stands for this setting: Staphylococcus aureus, VISA, read-out: MIC SA 2012, Staphylococcus aureus 2012 (VISA).
Where [15] appears, read: Enterococcus faecalis, VRE, read-out: MIC E FC 848, Enterococcus faecalis 848 (VRE, Van A).
[16] abbreviates: Staphylococcus epidermidis, MRSE.
Setting [17] is: Enterococcus faecalis, ATCC29212, read-out: MIC E FC 101, Enterococcus faecalis 101 (ATCC 29212).
Setting [18] is: Staphylococcus aureus, ATCC29213, read-out: MIC SA 100.
The mark [19] stands for this setting: Enterococcus faecium, VRE, read-out: MIC E FCM 752, Enterococcus faecium 752 (VRE, Van A).
Setting [20] is: Streptococcus pneumoniae, ATCC49619, read-out: MIC S PNE 1195.

≈ marks a conversion by molar mass, not a printed value. Read-outs that look alike come from different tables or passages of the source.

The MIC is the least concentration at which growth counts as inhibited. In the case of `CCCCCCc1ccc(S(=O)(=O)NCCCCCCNCc2c(O)cc3c(c2O)-c2cc(ccc2O)[C@H]2NC(=O)[C@@H]4NC(=O)[C@H](CC(N)=O)NC(=O)[C@H](NC(=O)[C@@H](CC(C)C)NC)[C@H](O)c5ccc(c(Cl)c5)Oc5cc4cc(c5O[C@@H]4O[C@H](CO)[C@@H](O)[C@H](O)[C@H]4O[C@H]4C[C@](C)(NC(=O)[C@@H](C)N)[C@H](O)[C@H](C)O4)Oc4ccc(cc4Cl)[C@@H](O)[C@H](NC2=O)C(=O)N[C@@H]3C(=O)O)cc1` (atropisomer, axis not shown) [Compound 342], the minimum inhibitory concentration (MIC) in the assay with Enterococcus faecium 800 (Enterococcus faecium 800, class symbols, read-out: MIC E FCM 800) is 0.01 to 0.5 µg/mL (≈ 0.00534 to 0.267 µM); in assay [1] (Staphylococcus aureus 757 (MRSA), class symbols), 0.01 to 0.5 µg/mL (≈ 0.00534 to 0.267 µM); in [2] (Staphylococcus epidermidis 835, class symbols, read-out: MIC SE 835) it was 0.01 to 0.5 µg/mL (≈ 0.00534 to 0.267 µM); in assay [3] (Streptococcus pyogenes 712, class symbols, read-out: MIC S PYO 712), 0.01 to 0.5 µg/mL (≈ 0.00534 to 0.267 µM); in assay [4] (Staphylococcus aureus 2012 (VISA), read-out: MIC SA 2012), 0.01 to 0.5 µg/mL (≈ 0.00534 to 0.267 µM); in [5] (Enterococcus faecalis 848 (VRE, Van A), read-out: MIC E FC 848), 4 to 8 µg/mL (≈ 2.14 to 4.27 µM). Also, the minimal inhibitory concentration (MIC) lay within 0.01 to 0.5 µg/mL (≈ 0.00534 to 0.267 µM) in [6] (Staphylococcus epidermidis 831 (MRSE), class symbols); 0.01 to 0.5 µg/mL (≈ 0.00534 to 0.267 µM) in assay [7] (ATCC29212, Enterococcus faecalis 101 (ATCC 29212), read-out: MIC E FC 101); 0.01 to 0.5 µg/mL (≈ 0.00534 to 0.267 µM) in [8] (ATCC29213, Staphylococcus aureus 100 (ATCC 29213), class symbols, read-out: MIC SA 100); 0.5 to 1 µg/mL (≈ 0.267 to 0.534 µM) in assay [9] (Enterococcus faecium 752 (VRE, Van A), read-out: MIC E FCM 752); 0.01 to 0.5 µg/mL (≈ 0.00534 to 0.267 µM) in assay [10] (ATCC49619, Streptococcus pneumoniae 1195 (ATCC 49619), class symbols, read-out: MIC S PNE 1195).

Consider `CCCCCCCC(C)NC(=O)Oc1cc(O)c2c(c1)[C@@H](C(=O)NC1C3CC4CC(C3)CC1C4)NC(=O)[C@H]1NC(=O)[C@H](NC(=O)[C@@H]3NC(=O)[C@H](CC(N)=O)NC(=O)[C@H](NC(=O)[C@@H](CC(C)C)NC)[C@H](O)c4ccc(c(Cl)c4)Oc4cc3cc(c4O[C@@H]3O[C@H](CO)[C@@H](O)[C@H](O)[C@H]3O[C@H]3C[C@](C)(N)[C@H](O)[C@H](C)O3)Oc3ccc(cc3Cl)[C@H]1O)c1ccc(O)c-2c1` (some centres unmarked) [Compound 312], for which the MIC with Enterococcus faecium 800 (setting [11]) is 0.01 to 0.5 µg/mL (≈ 0.00571 to 0.285 µM); in assay [1] (Staphylococcus aureus, MRSA) it was 0.01 to 0.5 µg/mL (≈ 0.00571 to 0.285 µM); in [2] (setting [12]) it was 0.5 to 1 µg/mL (≈ 0.285 to 0.571 µM); in assay [3] (setting [13]) it was 0.01 to 0.5 µg/mL (≈ 0.00571 to 0.285 µM); in assay [4] (setting [14]), greater than 16 µg/mL; in assay [5] (setting [15]), greater than 16 µg/mL. The MIC in assay [6] (setting [16]) was 0.01 to 0.5 µg/mL (≈ 0.00571 to 0.285 µM); in assay [7] (setting [17]), 0.01 to 0.5 µg/mL (≈ 0.00571 to 0.285 µM); in [8] (setting [18]), 0.01 to 0.5 µg/mL (≈ 0.00571 to 0.285 µM); in assay [9] (setting [19]), 0.5 to 1 µg/mL (≈ 0.285 to 0.571 µM); in assay [10] (setting [20]), 0.01 to 0.5 µg/mL (≈ 0.00571 to 0.285 µM).

`CCCCCCc1ccc(S(=O)(=O)NCCCCCNC(=O)Oc2cc(O)c3c(c2)[C@@H](C(=O)O)NC(=O)[C@H]2NC(=O)[C@H](NC(=O)[C@@H]4NC(=O)[C@H](CC(N)=O)NC(=O)[C@H](NC(=O)[C@@H](CC(C)C)NC)[C@H](O)c5ccc(c(Cl)c5)Oc5cc4cc(c5O[C@@H]4O[C@H](CO)[C@@H](O)[C@H](O)[C@H]4O[C@H]4C[C@](C)(N)[C@H](O)[C@H](C)O4)Oc4ccc(cc4Cl)[C@H]2O)c2ccc(O)c-3c2)cc1` (atropisomer, axis not shown) [Compound 350]: the minimal inhibitory concentration (MIC) was 0.01 to 0.5 µg/mL (≈ 0.00555 to 0.278 µM) in the assay on Enterococcus faecium 800 (setting [11]); 0.01 to 0.5 µg/mL (≈ 0.00555 to 0.278 µM) in [1] (Staphylococcus aureus, MRSA); 0.01 to 0.5 µg/mL (≈ 0.00555 to 0.278 µM) in assay [2] (setting [12]); 0.01 to 0.5 µg/mL (≈ 0.00555 to 0.278 µM) in assay [3] (setting [13]); 0.01 to 0.5 µg/mL (≈ 0.00555 to 0.278 µM) in assay [4] (setting [14]); 4 to 8 µg/mL (≈ 2.22 to 4.44 µM) in assay [5] (setting [15]). The MIC in assay [6] (setting [16]) fell in the range of 0.01 to 0.5 µg/mL (≈ 0.00555 to 0.278 µM); in assay [7] (setting [17]), 0.01 to 0.5 µg/mL (≈ 0.00555 to 0.278 µM); in [8] (setting [18]), 0.01 to 0.5 µg/mL (≈ 0.00555 to 0.278 µM); in assay [9] (setting [19]), 1 to 2 µg/mL (≈ 0.555 to 1.11 µM); in assay [10] (setting [20]), 0.01 to 0.5 µg/mL (≈ 0.00555 to 0.278 µM).

For the molecule `CCCCCOCCNC(=O)Oc1cc(O)c2c(c1)[C@@H](C(=O)O)NC(=O)[C@H]1NC(=O)[C@H](NC(=O)[C@@H]3NC(=O)[C@H](CC(N)=O)NC(=O)[C@H](NC(=O)[C@@H](CC(C)C)NC)[C@H](O)c4ccc(c(Cl)c4)Oc4cc3cc(c4O[C@@H]3O[C@H](CO)[C@@H](O)[C@H](O)[C@H]3O[C@H]3C[C@](C)(N)[C@H](O)[C@H](C)O3)Oc3ccc(cc3Cl)[C@H]1O)c1ccc(O)c-2c1` (atropisomer, axis not shown) [Compound 348], the MIC in the assay with Enterococcus faecium 800 (setting [11]) was 1 to 2 µg/mL (≈ 0.622 to 1.24 µM); in assay [1] (Staphylococcus aureus, MRSA), 2 to 4 µg/mL (≈ 1.24 to 2.49 µM); in assay [2] (setting [12]), 4 to 8 µg/mL (≈ 2.49 to 4.98 µM); in assay [3] (setting [13]) it was 0.5 to 1 µg/mL (≈ 0.311 to 0.622 µM); in [4] (setting [14]) it was 8 to 16 µg/mL (≈ 4.98 to 9.96 µM); in [5] (setting [15]) it was greater than 16 µg/mL. Moreover, the MIC in assay [6] (setting [16]) is 4 to 8 µg/mL (≈ 2.49 to 4.98 µM); in assay [7] (setting [17]) it was 2 to 4 µg/mL (≈ 1.24 to 2.49 µM); in [8] (setting [18]), 2 to 4 µg/mL (≈ 1.24 to 2.49 µM); in assay [9] (setting [19]), greater than 16 µg/mL; in assay [10] (setting [20]), 0.01 to 0.5 µg/mL (≈ 0.00622 to 0.311 µM).

Values taken from patent publication US20110015119A1, “NOVEL SEMI-SYNTHETIC GLYCOPEPTIDES AS ANTIBACTERIAL AGENTS” (LEAD THERAPEUTICS, INC., priority 2009, published 2011).
